Counter-ions that a name gives are not always drawn.

The results in this text go back to US10150761B2, “Substituted pyridine-piperazinyl analogues as RSV antiviral compounds” (Janssen Sciences Ireland UC, priority 2013, dated 2018).

The subject of one data set is rgRSV224 virus. The experiment in a line: Antiviral activity: rgRSV224 (GFP) replication in HeLa cells. The format is cell-based, respiratory syncytial virus (RSV). Conditions: human respiratory syncytial virus, HeLa, 72 h, read-out: RSV HELA pEC50, rgRSV224 virus (MOI=1), HeLa cells, GFP expression, three days post-virus exposure (converted). As to the method: Black 384-well clear-bottom microtiter plates (Corning, Amsterdam, The Netherlands) were filled via acoustic drop ejection using the echo liquid handler (Labcyte, Sunnyvale, Calif.), 200 nL of compound stock solutions (100% DMSO) were transferred to the assay plates, 9 serial 4-fold dilutions of compound were made, creating per quadrant the same compound concentration. The assay was initiated by adding 10 μL of culture medium to each well (RPMI medium without phenol red, 10% FBS-heat inactivated, 0.04% gentamycin (50 mg/mL). All addition steps are done by using a multidrop dispenser (Thermo Scientific, Erembodegem, Belgium). Next, rgRSV224 virus (MOI=1) diluted in culture medium was added to the plates, rgRSV224 virus is an engineered virus that includes an additional GFP gene (Hallak L K, Spillmann D. Collins P L, Peeples M E.
(§1) Glycosaminoglycan sulfation requirements for respiratory syncytial virus infection; Journal of virology (2000), 74(22), 10508-13) and was in-licensed from the NIH (Bethesda, Md., USA). Finally, 20 μL of a HeLa cell suspension (3,000 cells/well) were plated. Medium, virus- and mock-infected controls were included in each test. The wells contain 0.05% DMSO per volume. Cells were incubated at 37° C. in a 5% CO2 atmosphere. Three days post-virus exposure, viral replication was quantified by measuring GFP expression in the cells by an in house developed MSM laser microscope (Tibotec. Beerse, Belgium). The EC50 was defined as the 50% inhibitory concentration for GFP expression. In parallel, compounds were incubated for three days in a set of white 384-well microtiter plates (Corning) and the cytotoxicity of compounds in HeLa cells was determined by measuring the ATP content of the cells using the ATPlite kit (PerkinElmer, Zaventem, Belgium) according to the manufacturer's instructions. The CC50 was defined as the 50% concentration for cytotoxicity.

Data set [1] is described as follows: Cytotoxicity in HeLa cells (ATP content, ATPlite kit). It counts as cell-based. Conditions: human, three days incubation, read-out: TOX HELA pCC50 (converted). On the procedure:
as §1
Background: Cellular ATP, detected with luciferase, serves as a proxy for viable cell number.

One may read the melting point as the temperature, or range, at which the solid turns liquid. On to `c1cnc(-c2cccc3[nH]ccc23)c(N2CCN(c3ccncc3)CC2)c1`, for which the melting point is 262 °C.

`COCCCn1c(-c2ncccc2N2CCN(c3ccncc3)CC2)cc2ccccc21` (as salt: fumarate) displayed a melting point of 168 °C. For `Clc1cccc(-c2ncccc2N2CCN(c3ccncc3)CC2)c1` [Compound 3], the EC50 with rgRSV224 virus was 550 nM. Moreover, in data set [1], the CC50 at 3 days is greater than 100000 nM.

Take `COc1ccc(-c2ncccc2N2CCN(c3ccncc3)CC2)cc1` [Compound 5]: in the data set on rgRSV224 virus, the EC50 was 427 nM. Besides, the CC50 at 3 days in data set [1] is greater than 100000 nM. For `c1cc(N2CCN(c3nccnc3-c3ccc4occc4c3)CC2)ccn1` [Compound 7], in that order: 871 nM and greater than 97700 nM. Taken in the same sequence, the figures for `Clc1ccc(-c2ncccc2N2CCN(c3ccncc3)CC2)c(Cl)c1` [Compound 14] were 186 nM and 40700 nM.

`Clc1ccc(-c2ncccc2N2CCN(c3ccncc3)CC2)cc1` [Compound 15]: the EC50 in the data set with rgRSV224 virus was 309 nM. The CC50 at 3 days in data set [1] was 891 nM. Consider `COc1ccc(-c2ncccc2N2CCN(c3ccncc3)CC2)cc1OC` [Compound 16], for which, in the data set on rgRSV224 virus, the EC50 is 977 nM. In addition, the CC50 at 3 days in data set [1] was greater than 100000 nM. Taken in the same sequence, the figures for `COc1cc(-c2ncccc2N2CCN(c3ccncc3)CC2)ccn1` [Compound 18] were 832 nM and greater than 97700 nM.

`CC(C)Oc1ccc(-c2ncccc2N2CCN(c3ccncc3)CC2)cn1` [Compound 19]: the EC50 with rgRSV224 virus is 525 nM. Besides, the CC50 at 3 days in data set [1] was 19100 nM. For `N#Cc1ccc(-c2ncccc2N2CCN(c3ccncc3)CC2)cc1` [Compound 28], in that order: 589 nM and greater than 100000 nM.

In the case of `COc1cc(N2CCN(c3cccnc3-c3ccccc3)CC2)ccn1` [Compound 29], in the data set on rgRSV224 virus, the EC50 is 123 nM. The CC50 at 3 days in data set [1] was 257 nM. Taken in the same sequence, the figures for `CN(C)c1ccc(-c2ncccc2N2CCN(c3ccncc3)CC2)cc1` [Compound 34] were 295 nM and 74100 nM. Taken in the same sequence, the figures for `Cn1c(-c2ncccc2N2CCN(c3ccncc3)CC2)cc2ccccc21` [Compound 40] were 25.1 nM and 53700 nM. For the molecule `N#CCCn1ccc2ccc(-c3ncccc3N3CCN(c4ccncc4)CC3)cc21` [Compound 48], the EC50 in the data set on rgRSV224 virus is 166 nM. The CC50 at 3 days in data set [1] was greater than 100000 nM. Consider `N#CCCn1ccc2cc(-c3ncccc3N3CCN(c4ccncc4)CC3)ccc21` [Compound 51], for which the EC50 with rgRSV224 virus was 74.1 nM. Besides, the CC50 at 3 days in data set [1] was 55000 nM. Taken in the same sequence, the figures for `CC1CN(c2cccnc2-c2ccc3ccn(C)c3c2)CCN1c1ccncc1` (stereo not drawn) [Compound 52] were 13.5 nM and 44700 nM. Consider `c1ccc(Cc2nccnc2N2CCN(c3ccncc3)CC2)cc1` [Compound 53], for which the EC50 with rgRSV224 virus was 3390 nM. For the same molecule, the CC50 at 3 days in data set [1] is 75900 nM.

As for `c1cnc(-c2ccc(C3CCCCC3)cc2)c(N2CCN(c3ccncc3)CC2)c1` [Compound 61], in the data set with rgRSV224 virus, the EC50 is 832 nM. Also, the CC50 at 3 days in data set [1] was 3470 nM.

With `COc1ccc(C(O)(c2ccc(OC)cc2)c2ncccc2N2CCN(c3ccncc3)CC2)cc1` [Compound 64], the EC50 in the data set on rgRSV224 virus was 50.1 nM. Further, the CC50 at 3 days in data set [1] is greater than 93300 nM. Taken in the same sequence, the figures for `Cn1cc(-c2ccc(-c3ncccc3N3CCN(c4ccncc4)CC3)cc2)cn1` [Compound 66] were 933 nM and 70800 nM. With `Cn1nccc1-c1ccc(-c2ncccc2N2CCN(c3ccncc3)CC2)cc1` [Compound 67], in the data set on rgRSV224 virus, the EC50 was 407 nM. In data set [1], the CC50 at 3 days is 97700 nM. Taken in the same sequence, the figures for `COc1ccc(C(O)c2ncccc2N2CCN(c3ccncc3)CC2)cc1` (stereo not drawn) [Compound 71] were 39800 nM and greater than 100000 nM. Consider `COc1ccc(C(C)(O)c2ncccc2N2CCN(c3ccncc3)CC2)cc1` (stereo not drawn) [Compound 72], for which the EC50 with rgRSV224 virus was 525 nM. In addition, the CC50 at 3 days in data set [1] was greater than 100000 nM. Taken in the same sequence, the figures for `OC1(c2ccccc2)CCN(c2ncccc2N2CCN(c3ccncc3)CC2)CC1` [Compound 73] were 631 nM and 63100 nM.
